Data from patent US6866861B1, “Method and composition for enhancing milk component concentrations” (Land O'Lakes, Inc., priority 1999, dated 2005).

Columns and labels:
cows [1] = test: Abomasal infusion of glycerol in early lactation cows, milk component concentrations (Example 4); format: in vivo, cow; conditions: for Fat / Lactose / Total Solids / True Protein: 150 g/cow/day abomasal, average of 3 cows, early lactation
Procedure: To determine the weight percent total solids, wet basis, in a sample, the actual weight of total solids is determined by analyzing the sample in accordance with Method #925.23 (33.2.09) of Official Methods of Analysis, Association of Official Analytical Chemists (AOAC) (16th Ed., 1995). The weight percent total solids, wet basis, is then calculated by dividing the actual weight of total solids by the actual weight of the sample. The weight percent of true protein, wet basis, for a particular sample is calculated after first determining the wet basis weight percent of total Kjeldahl nitrogen and the wet basis weight percent of non-protein nitrogen in the sample. The wet basis weight percent of total Kjeldahl nitrogen in the sample is determined using the method referenced above. The wet basis weight percent of non-protein nitrogen (NPN) in the sample is determined in accordance with Method #991.21 (33.2.12) of Official Methods of Analysis, Association of Official Analytical Chemists (AOAC) (16th Ed., 1995). The weight percent of true protein, wet basis, in the sample is then determined by subtracting the wet basis weight percent of non-protein nitrogen in the sample from the wet basis weight percent of total Kjeldahl nitrogen in the sample. To determine the weight percent lactose, wet basis, in a liquid sample, the weight of the liquid sample is first determined. The actual weight of lactose in the liquid sample may then be determined using analysis kit number 176-303, that is available from Boehringer-Mannheim of Indianapolis, Ind. in accordance with the procedural instructions included with analysis kit number 176-303. The weight percent lactose, wet basis, in the liquid sample is then calculated by dividing the actual weight of lactose in the liquid sample by the actual weight of the liquid sample. To determine the weight percent fat, wet basis, in a sample, the actual weight of fat in the sample is determined in accordance with Method #974.09 (33.7.18) of Official Methods of Analysis, Association of Official Analytical Chemists (AOAC) (16th Ed., 1995). The weight percent fat, wet basis, is then calculated by dividing the actual weight of fat in the sample by the actual weight of the sample. In this example, glycerol was abomasally infused into three different cows at a rate of 150 grams per cow per day during a 14 day test period. The rations provided to the cows during the period extending from day 0, prior to abomasal infusion of glycerol, through day 14 of the test period were the same. The only difference in feeding of the cows between day 0 and days 1-14 of the test period were that during days 1-14 the cows were abomasally infused with the dosage of 150 grams of glycerol per cow per day. The glycerol was not combined with any other materials prior to being abomasally infused into the cattle. Milk from the three cows was collected and analyzed prior to infusion (on day 0) and also was collected and analyzed on the third, seventh and fourteenth day of the test period. The results presented in Table 4 below for each milk component for each particular day are averages for the milk collected from the three different cows. The net change for the different milk components presented in Table 4 was calculated by averaging the results of days 3, 7 and 14 for a particular milk component and subtracting the results presented for day 0 for the particular milk component. […] This increase in true protein concentration is particularly significant considering that the test cattle were in the early lactation phase (less than 90 days into milk production) when abomasally infused with glycerol. Typically, when being fed ordinary rations, the concentration of true protein in milk produced by lactating cattle decreases as the early lactation phase progresses.

cows [2] = test: Abomasal infusion of glycerol on an on-off-on schedule, total solids in milk (Example 6, FIG. 3); format: in vivo; conditions: 150 g/cow/day abomasal weeks 1-3 and 7-9, water weeks 4-6; average of two cows
Procedure: FIG. 3 is a graph of the concentration of total solids in milk versus time when abomasally infusing glycerol into cattle in accordance with the method of the present invention. To determine the weight percent total solids, wet basis, in a sample, the actual weight of total solids is determined by analyzing the sample in accordance with Method #925.23 (33.2.09) of Official Methods of Analysis, Association of Official Analytical Chemists (AOAC) (16th Ed., 1995). The weight percent total solids, wet basis, is then calculated by dividing the actual weight of total solids by the actual weight of the sample. In Example 6, two cows were abomasally infused at the rate of 150 grams per cow per day of glycerol on an on-off-on schedule to determine whether there were any benefits to intermittently providing glycerol to the abomasum of the cattle. For each cow, glycerol was abomasally infused during weeks 1-3 and weeks 7-9, while water, and not glycerol, was abomasally infused into each cow during weeks 4-6. The results of this test are graphically depicted in FIG. 3 as the concentration, expressed as weight percent, of total solids in the milk produced by the cattle during the test period.

[3] = abomasal infusion, early lactation phase
[4] = milk, average of days 3, 7, 14 minus day 0

## OCC(O)CO [glycerol]
Cows [1]; [3]
  weight percent of fat in the milk (conclusion in words): substantially stabilized
  weight percent of total solids in the milk (conclusion in words): substantially stabilized
  weight percent of true protein in the milk (conclusion in words): net increase
Cows [1]; milk, Day 3
  Fat: 3.80 Wt %
  Lactose: 4.78 Wt. %
  Total Solids: 12.67 Wt. %
  True Protein: 3.33 Wt. %
Cows [1]; milk, Day 7
  Fat: 3.53 Wt %
  Lactose: 4.41 Wt. %
  Total Solids: 12.04 Wt. %
  True Protein: 3.32 Wt. %
Cows [1]; milk, Day 14
  Fat: 3.68 Wt %
  Lactose: 4.51 Wt. %
  Total Solids: 12.34 Wt. %
  True Protein: 3.38 Wt. %
Cows [1]; [4]
  Fat, Net Change: −0.11 Wt %
  Lactose, Net Change: −0.07 Wt. %
  Total Solids, Net Change: −0.05 Wt. %
  True Protein, Net Change: +0.11 Wt. %
Cows [1]; milk, net change over test period
  decrease in the weight percent of lactose: 0.07%
Cows [2]
  weight percent of total solids in the milk (FIG. 3, in words): increased
